The values that follow come from patent US8496952B2, “Antimicrobial compositions comprising silver chloride and benzoisothiazoline” (Clariant Finance (BVI) Limited, priority 2007, dated 2013).

Data set [1] concerns Staphylococcus aureus DSM 799, Pseudomonas aeruginosa DSM 1128, E-Coli DSM 682, Enterobacter aerogenes NCIMB 10102. As to the kind of experiment: Kill-kinetic measurement according to the Clariant method, supported silver/BIT (Example 2). The format is cell-based. The settings on record: summary of Table 2. As for the experimental part: (Kill-kinetic measurement according to the Clariant method) of silver-BIT mixtures in comparison to the individual biocides silver and BIT
(§1) • 900 ml of phosphate buffer pH 7.0: • 600 ml of H2O dest. +117 ml of (b)+183 ml of (a)
(§2) The bacteria are cultivated on a caso agar.
After the bacteria have spent 24 hours on the culture medium (caso agar), 10 ml of the 0.1 M phosphate buffer are added thereto and mixed for 20 seconds using a vortex mixer; 9 ml of the 0.1 M buffer solution are added to 1 ml of this solution; in turn, 1 ml of this solution are taken and 9 ml of 0.1 M phosphate buffer are added. The resulting solution is the inoculum with which the test series is carried out.
The germ count was determined in each case at the start (0 h), after 0.5 h, 1 h, 2 h; 3 h; 5 h; 7 h and 24 h in accordance with the TVC method European Pharmacopoeia 2.6.12.

Data set [2] in a line: Color stability of Ag/BIT compared with AgCl, AgNO3, JMAC. The format is physicochemical.
Data set [3] relates to Staphylococcus aureus DSM 799, Pseudomonas aeruginosa DSM 1128, E-Coli DSM 682, Enterobacter aerogenes NCIMB 10102. As to the kind of experiment: Kill-kinetic measurement according to the Clariant method, Ag salt/BIT (Example 1). The format is cell-based. The note with it: summary of Table 1. The protocol: (kill-kinetic measurement according to the Clariant method) of the composition Ag/BIT in comparison to the individual biocides AgCl, AgNO3, composition 1 and composition 5
as §1, §2
Description of the kill-kinetic measurement according to the Clariant method After the bacteria have spent 24 hours on the culture medium (caso agar), 10 ml of the 0.1 M phosphate buffer are added thereto and mixed for 20 seconds using a vortex mixer; 9 ml of the 0.1 M buffer solution are added to 1 ml of this solution; in turn, 1 ml of this solution are taken and 9 ml of 0.1 M phosphate buffer are added. The resulting solution is the inoculum with which the test series is carried out.
The concentration data given for the above samples refer in each case to elemental silver and pure BIT (i.e. not in salt form). Thus, for example in sample 4, AgNO3 and BIT were mixed together such that the mixture comprised 26.7 ppm of Ag, calculated as element, and 53.3 ppm of BIT, calculated as pure substance.
The germ count was determined in each case at the start (0 h), after 0.5 h, 1 h; 2 h; 3 h; 5 h; 7 h and 24 h in accordance with the TVC method European Pharmacopoeia 2.6.12.

Regarding `O=c1[nH]sc2ccccc12` [Benzoisothiazoline, 1,2-benzoisothiazolin-3-one], in data set [1], the “antimicrobial effect / efficiency (in words)” value is listed as “only develops its antimicrobial effect after many hours”.

On to `O=[N+]([O-])[O-].[Ag+]` [AgNO3 solution, AgNO3], for which the Appearance after result in data set [2] (5 min), in data set [2] (30 min), in data set [2] (1 h), in data set [2] (2 h), in data set [2] (6 h) and in data set [2] (24 h) was “dark gray” each time. The Appearance after entry in data set [2] (immediately) is “gray”.

In the case of AgCl [Sample 9], the “antimicrobial effect / efficiency (in words)” value in data set [3] is “moderate”.

On to AgNO3 [Sample 8], for which the “antimicrobial effect / efficiency (in words)” value in data set [3] is given as “moderate”.

For `[Cl][Ag]` [AgCl], the Appearance after result in data set [2] (5 min) is given as “gray”; in data set [2] (30 min), “dark gray”; in data set [2] (1 h), “dark gray”; in data set [2] (2 h) it was “dark gray”; in data set [2] (6 h) it was “dark gray”; in data set [2] (24 h) it was “dark gray”. The Appearance after entry in data set [2] (immediately) is “white”.

Take silver ions: the “antimicrobial effect / efficiency (in words)” value in data set [1] is reported as “moderate”.
